US6777415B2, “Methods of inducing cancer cell death and tumor regression” (priority 2000, dated 2004)

Assays:
MAPK pathway = assay: Time course of MAPK pathway inhibition after treatment; assay type: cell-based
Source text: (2) A “Ras signaling pathyway inhibitor” is defined herein as an agent that blocks the activity of any protein in the signal transduction pathway shown in FIG. 1. A particularly preferred Ras signaling pathway inhibitor is a “MEK inhibitor”, which is defined herein as an agent that blocks the in vitro enzyme activity of a MEK (MAPK/ERK kinase) protein (preferably inhibiting MEK1 and MEK2), and thus blocks the activation of a MAPK protein as evidenced by a block in the phosphorylation of the MAPK protein. This can be detected by western blot analysis for phosphorylated MAPK as described in, e.g., Dudley et al., Proc Natl Acad Sci. 92:7686-7689 (1995), and Favata et al., J Bio Chem. 273:18623-32(1998).
“Sustained effect” is defined herein as a prolonged/enhanced apoptotic response to combination treatment with a FPT I and a MEK1,2 inhibitor in comparison to single treatment alone. The consequences of a “sustained effect” can be monitored either by measurement of MAPK activity or cell death or apoptosis, as described in previously. The effective time course for inhibition of MAPK pathway by the individual drugs is dose dependent. […] (See, e.g., FIG. 6.

human tumor cell lines = conditions: variety of human tumor cell lines, in vitro (Liu et al., 1998); cited from earlier work
[1] = test system: human tumor cell lines as xenografts; conditions: immuno-compromised mice (Liu et al., 1998); cited from earlier work
Ras-transformed cells = Ras-transformed cells (Alessi et al., 1995); cited from earlier work
MEK = conditions: Favata et al., 1998; cited from earlier work

For `NC(=O)N1CCC(CC(=O)N2CCC(C3c4ncc(Br)cc4CCc4cc(Cl)cc(Br)c43)CC2)CC1` (stereo not drawn) [SCH 66336], the “duration of the MAPK inhibitory effect after treatment” value (MAPK pathway) is given as at most 72 h, the “time of optimal MAPK pathway inhibition after treatment” value (MAPK pathway; dose dependent) is given as 12 to 18 h and the “inhibition of anchorage-independent growth” value (human tumor cell lines) is given as “inhibition of anchorage-independent growth”. For the same compound, the “inhibition of growth as xenografts” value [1] was “inhibition”.

In the case of `COc1cccc(-c2cc(=O)c3ccccc3o2)c1N` [PD098059], the “effect on growth factor-mediated proliferation and anchorage-independent growth” value (Ras-transformed cells) is listed as “blocks”.

In the case of `N#CC(=C(/N)Sc1ccccc1N)/C(C#N)=C(\N)Sc1ccccc1N` [U0126], the “affinity of binding to MEK relative to PD098059” value (MEK) is listed as “higher affinity than PD098059”.
